ChEMBL document CHEMBL1201862, “PubChem BioAssay data set” (2004)
The source made the active and inactive calls.

Columns and labels:
[1] = molecular target: T1, Zinc finger protein mex-5 (Caenorhabditis elegans, UniProt Q9XUB2); experiment: potency of MEX-5 RNA-binding blockers – biochemical, C. elegans, fluorescence polarization, dose response (AID 1960)
T1 sequence (Q9XUB2 whole entry): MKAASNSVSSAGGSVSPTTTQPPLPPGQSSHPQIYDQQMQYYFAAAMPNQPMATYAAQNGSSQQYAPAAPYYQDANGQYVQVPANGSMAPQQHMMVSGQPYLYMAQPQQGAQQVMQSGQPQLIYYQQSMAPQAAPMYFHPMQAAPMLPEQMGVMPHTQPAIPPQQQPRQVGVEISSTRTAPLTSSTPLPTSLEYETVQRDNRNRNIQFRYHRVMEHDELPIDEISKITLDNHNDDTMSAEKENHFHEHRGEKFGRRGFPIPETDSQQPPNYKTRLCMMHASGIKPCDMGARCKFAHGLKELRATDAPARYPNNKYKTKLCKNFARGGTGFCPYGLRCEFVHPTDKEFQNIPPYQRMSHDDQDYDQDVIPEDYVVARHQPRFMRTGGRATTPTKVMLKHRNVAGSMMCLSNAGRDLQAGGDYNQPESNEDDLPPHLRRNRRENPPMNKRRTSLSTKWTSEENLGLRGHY

[2] = molecular target: T2, RNA-binding protein pos-1 (Caenorhabditis elegans, UniProt G5EF15); experiment: disruptors of C. elegans POS-1 RNA interaction – biochemical, fluorescence polarization, dose response (AID 1964);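 further: purified POS-1 fused to maltose binding protein made in E. coli; potency of compounds blocking POS-1 binding to fluorescent RNA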
T2 sequence (G5EF15 whole entry): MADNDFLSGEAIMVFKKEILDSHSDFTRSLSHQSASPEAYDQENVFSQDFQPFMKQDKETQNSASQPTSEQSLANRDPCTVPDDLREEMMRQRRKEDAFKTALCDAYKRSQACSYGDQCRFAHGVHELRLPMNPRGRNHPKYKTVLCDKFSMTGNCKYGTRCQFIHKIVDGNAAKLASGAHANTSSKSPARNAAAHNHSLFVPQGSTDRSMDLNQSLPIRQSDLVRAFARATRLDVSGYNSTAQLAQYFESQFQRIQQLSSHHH

Fatty acid synthase [3] = molecular target: T3, Fatty acid synthase (Homo sapiens, UniProt P49327); experiment: inhibition of human FAS-TE enzyme activity – biochemical, kinetic fluorescence intensity, dose response (AID 624326); assay type: functional;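 further: rate of fluorescence rise from hydrolysis of a fluorogenic O-methyl fluorescein ester substrate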
T3 sequence (P49327 whole entry): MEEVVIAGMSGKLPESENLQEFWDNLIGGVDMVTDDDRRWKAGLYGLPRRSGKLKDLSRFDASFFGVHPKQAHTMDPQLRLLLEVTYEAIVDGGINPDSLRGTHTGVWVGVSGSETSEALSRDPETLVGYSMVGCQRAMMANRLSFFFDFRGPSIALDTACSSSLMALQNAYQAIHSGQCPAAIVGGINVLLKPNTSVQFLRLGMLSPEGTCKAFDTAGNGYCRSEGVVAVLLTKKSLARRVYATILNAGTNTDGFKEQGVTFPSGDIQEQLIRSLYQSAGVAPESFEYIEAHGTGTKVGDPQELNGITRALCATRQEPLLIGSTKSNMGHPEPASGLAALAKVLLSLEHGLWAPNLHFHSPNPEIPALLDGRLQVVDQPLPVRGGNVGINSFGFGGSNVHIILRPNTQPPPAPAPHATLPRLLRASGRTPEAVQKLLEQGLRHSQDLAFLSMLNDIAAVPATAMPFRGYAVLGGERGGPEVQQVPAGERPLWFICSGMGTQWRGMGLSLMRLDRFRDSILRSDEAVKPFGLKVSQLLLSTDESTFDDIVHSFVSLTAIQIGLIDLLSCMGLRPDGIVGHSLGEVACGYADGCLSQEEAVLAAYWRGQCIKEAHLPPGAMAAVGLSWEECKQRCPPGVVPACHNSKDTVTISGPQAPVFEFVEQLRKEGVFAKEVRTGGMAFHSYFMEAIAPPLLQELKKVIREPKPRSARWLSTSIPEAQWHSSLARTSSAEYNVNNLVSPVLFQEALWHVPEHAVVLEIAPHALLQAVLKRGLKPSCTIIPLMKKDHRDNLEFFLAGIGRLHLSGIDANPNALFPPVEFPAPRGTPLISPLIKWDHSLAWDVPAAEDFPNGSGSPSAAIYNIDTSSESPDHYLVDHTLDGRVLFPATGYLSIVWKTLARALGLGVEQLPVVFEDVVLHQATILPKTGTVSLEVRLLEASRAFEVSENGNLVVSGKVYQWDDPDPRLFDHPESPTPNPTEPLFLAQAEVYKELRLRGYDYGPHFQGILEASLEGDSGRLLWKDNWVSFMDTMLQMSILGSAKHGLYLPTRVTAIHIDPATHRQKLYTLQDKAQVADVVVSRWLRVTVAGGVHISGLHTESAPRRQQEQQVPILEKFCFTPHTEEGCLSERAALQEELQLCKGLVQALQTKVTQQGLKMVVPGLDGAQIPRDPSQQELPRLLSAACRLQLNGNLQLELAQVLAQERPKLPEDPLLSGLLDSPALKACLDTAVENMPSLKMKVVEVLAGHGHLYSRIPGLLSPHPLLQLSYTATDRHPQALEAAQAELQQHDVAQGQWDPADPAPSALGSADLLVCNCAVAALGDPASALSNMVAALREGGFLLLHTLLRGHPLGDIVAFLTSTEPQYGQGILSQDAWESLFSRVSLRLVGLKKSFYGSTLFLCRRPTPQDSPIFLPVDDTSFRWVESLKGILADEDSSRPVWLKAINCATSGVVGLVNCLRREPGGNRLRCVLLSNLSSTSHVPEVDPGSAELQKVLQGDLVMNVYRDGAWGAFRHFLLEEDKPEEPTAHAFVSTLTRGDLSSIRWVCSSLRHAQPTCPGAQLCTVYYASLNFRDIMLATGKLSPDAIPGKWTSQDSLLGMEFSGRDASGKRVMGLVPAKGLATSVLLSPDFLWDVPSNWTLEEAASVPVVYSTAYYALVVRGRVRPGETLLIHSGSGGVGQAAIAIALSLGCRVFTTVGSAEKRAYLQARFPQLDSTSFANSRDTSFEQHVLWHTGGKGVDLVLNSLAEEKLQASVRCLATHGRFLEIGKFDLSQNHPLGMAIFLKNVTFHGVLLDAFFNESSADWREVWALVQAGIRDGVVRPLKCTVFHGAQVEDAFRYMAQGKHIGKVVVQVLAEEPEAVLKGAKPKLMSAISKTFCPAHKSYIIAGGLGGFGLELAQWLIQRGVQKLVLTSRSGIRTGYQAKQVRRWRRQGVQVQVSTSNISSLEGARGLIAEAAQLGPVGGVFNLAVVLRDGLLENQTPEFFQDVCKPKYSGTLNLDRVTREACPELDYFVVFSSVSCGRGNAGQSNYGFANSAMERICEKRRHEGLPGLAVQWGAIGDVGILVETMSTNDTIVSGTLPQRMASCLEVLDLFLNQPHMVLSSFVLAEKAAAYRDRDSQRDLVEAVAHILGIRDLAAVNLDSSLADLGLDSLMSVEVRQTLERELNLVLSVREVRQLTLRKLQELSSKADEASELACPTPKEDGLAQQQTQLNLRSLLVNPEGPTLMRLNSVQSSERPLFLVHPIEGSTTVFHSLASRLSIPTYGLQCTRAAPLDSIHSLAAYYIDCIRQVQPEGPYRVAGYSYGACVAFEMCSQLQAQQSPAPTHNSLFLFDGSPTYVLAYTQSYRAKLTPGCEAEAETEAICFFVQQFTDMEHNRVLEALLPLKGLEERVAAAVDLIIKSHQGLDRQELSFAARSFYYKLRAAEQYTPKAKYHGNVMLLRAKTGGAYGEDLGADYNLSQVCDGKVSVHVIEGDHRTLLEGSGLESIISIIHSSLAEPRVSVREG

Fatty acid synthase [4] = molecular target: T3, Fatty acid synthase; experiment: inhibition of human FAS-TE enzyme activity – biochemical, endpoint fluorescence intensity, uHTS hits, dose response (AID 624327); assay type: functional;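 further: fluorescence from hydrolysis of an O-methyl fluorescein acyl ester substrate by the enzyme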
[5] = molecular target: T4, Rac GTPase-activating protein 1 (Homo sapiens, UniProt Q9H0H5); experiment: blockers of MgcRacGAP-driven Rac1 GTP hydrolysis – biochemical, ADP Hunter fluorescence, primary and confirmatory, confirmation (AID 624330); assay type: functional
T4 sequence (Q9H0H5 whole entry): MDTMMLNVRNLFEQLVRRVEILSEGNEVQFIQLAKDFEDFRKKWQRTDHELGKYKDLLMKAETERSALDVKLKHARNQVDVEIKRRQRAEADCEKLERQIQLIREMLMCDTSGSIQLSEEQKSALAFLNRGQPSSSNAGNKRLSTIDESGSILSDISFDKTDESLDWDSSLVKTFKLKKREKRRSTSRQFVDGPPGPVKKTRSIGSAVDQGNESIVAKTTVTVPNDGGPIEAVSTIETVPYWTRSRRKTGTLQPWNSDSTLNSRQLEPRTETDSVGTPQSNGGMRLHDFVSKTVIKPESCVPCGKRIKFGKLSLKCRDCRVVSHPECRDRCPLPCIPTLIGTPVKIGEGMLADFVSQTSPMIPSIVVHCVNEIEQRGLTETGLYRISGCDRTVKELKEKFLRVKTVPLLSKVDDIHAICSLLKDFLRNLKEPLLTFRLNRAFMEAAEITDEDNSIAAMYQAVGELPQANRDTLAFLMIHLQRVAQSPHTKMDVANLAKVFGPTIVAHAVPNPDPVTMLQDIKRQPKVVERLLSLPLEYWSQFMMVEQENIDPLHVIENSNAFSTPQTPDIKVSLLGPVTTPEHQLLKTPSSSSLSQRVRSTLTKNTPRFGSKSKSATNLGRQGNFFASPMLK

[6] = molecular target: T5, Calpain-2 catalytic subunit (Sus scrofa, UniProt P43367); experiment: m-calpain protease blockers, concentration series – biochemical, fluorogenic peptide substrate, dose response (AID 1420); assay type: functional
T5 sequence (P43367 whole entry): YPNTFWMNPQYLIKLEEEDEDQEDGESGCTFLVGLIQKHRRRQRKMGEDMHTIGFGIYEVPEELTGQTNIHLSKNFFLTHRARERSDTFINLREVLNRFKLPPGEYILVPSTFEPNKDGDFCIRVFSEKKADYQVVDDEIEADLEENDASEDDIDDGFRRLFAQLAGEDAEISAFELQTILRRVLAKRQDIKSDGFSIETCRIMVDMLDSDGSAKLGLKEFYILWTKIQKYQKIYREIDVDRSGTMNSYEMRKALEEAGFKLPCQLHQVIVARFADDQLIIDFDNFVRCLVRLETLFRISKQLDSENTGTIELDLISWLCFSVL

[7] = molecular target: FAD-linked sulfhydryl oxidase ALR (Homo sapiens, UniProt P55789); experiment: ALR-catalysed DTT oxidation blockers – biochemical, H2O2 detection, luminescence, cherry-pick, dose response (AID 493248)
FAD-linked sulfhydryl oxidase ALR, sequence (P55789 whole entry): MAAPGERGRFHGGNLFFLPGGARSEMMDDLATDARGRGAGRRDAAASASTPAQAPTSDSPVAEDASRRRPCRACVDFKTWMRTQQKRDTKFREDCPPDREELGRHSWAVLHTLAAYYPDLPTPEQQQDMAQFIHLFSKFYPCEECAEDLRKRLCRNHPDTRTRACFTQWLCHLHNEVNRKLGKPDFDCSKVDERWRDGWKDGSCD

[8] = Trypanosoma cruzi growth suppression in host cells – NIH3T3 host cells, beta-gal luminescence, confirmation (AID 2044); assay type: functional, cell-based;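 further: intracellular parasites grown in NIH/3T3 mouse fibroblasts as host cells; luminescent beta-galactosidase reporter signal from transgenic T. cruzi replicating inside host cells; inhibitors lower the luminescence signal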
[9] = NIH3T3 cell viability loss – ATP luminescence, mouse fibroblasts, counter-screen, dose response (AID 2010); assay type: functional, cell-based;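 further: cells exposed to compound for about 90 hours before reading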
[10] = molecular target: T6, Heat shock factor protein 1 (Mus musculus, UniProt P38532); experiment: decrease of HSF1-responsive luciferase luminescence – cell-based, NIH3T3, dose retest, confirmation (AID 2382); assay type: functional;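 further: NIH3T3 fibroblasts with HSF1-driven luciferase reporter stressed by proteasome inhibitor MG132; luminescence from HSF1-driven luciferase expression after 8 hours of MG132 stress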
T6 sequence (P38532 whole entry): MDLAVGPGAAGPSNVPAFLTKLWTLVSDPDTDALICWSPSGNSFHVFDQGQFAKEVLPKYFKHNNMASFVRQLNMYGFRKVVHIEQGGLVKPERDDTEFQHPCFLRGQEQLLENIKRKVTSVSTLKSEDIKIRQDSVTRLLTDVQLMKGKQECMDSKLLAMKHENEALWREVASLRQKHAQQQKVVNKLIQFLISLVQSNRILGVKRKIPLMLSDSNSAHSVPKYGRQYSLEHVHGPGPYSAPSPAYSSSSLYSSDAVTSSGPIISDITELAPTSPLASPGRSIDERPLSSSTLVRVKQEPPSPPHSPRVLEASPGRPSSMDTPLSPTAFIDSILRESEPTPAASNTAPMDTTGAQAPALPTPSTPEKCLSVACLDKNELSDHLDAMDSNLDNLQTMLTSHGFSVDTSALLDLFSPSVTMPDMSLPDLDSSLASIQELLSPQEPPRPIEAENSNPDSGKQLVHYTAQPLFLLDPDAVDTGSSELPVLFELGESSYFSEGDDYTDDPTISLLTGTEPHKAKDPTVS

SN12K1 = experiment: cells; assay type: functional; conditions: Homo sapiens

IC50 (Fatty acid synthase [3])	IC50 (Fatty acid synthase [4])	IC50 [5]	SMILES	also measured
1.57 µM (active)	2.25 µM (active)	–	O=C(COC(=O)c1cc([N+](=O)[O-])ccc1N1CCOCC1)Nc1cc(F)ccc1F	–
6.81 µM (active)	8.65 µM (active)	–	Cc1csc(NC(=O)C2CCN(S(=O)(=O)c3ccc4c(c3)oc(=O)n4C)CC2)n1	–
3.44 µM (active)	5.24 µM (active)	–	COc1ccc(-n2c(SCc3ccc([N+](=O)[O-])cc3)nnc2-c2ccccc2)cc1	–
6.81 µM (active)	5.49 µM (active)	–	O=C(O)c1cc(NN=Nc2ccc(Br)cc2)cc([N+](=O)[O-])c1	IC50 [6]: 12.6 µM (not active)
–	–	108 µM (active)	COc1ccc(NC2CCCN(C(=O)CCc3cn[nH]c3)C2)cc1 (stereo not drawn)	AC50 [7]: 2.19 µM (active)
–	–	12.5 µM (active)	Cc1cnc(C(=O)Oc2ccc(-c3ccccc3)cc2)cn1	–
–	–	57.7 µM (active)	CN(C)c1ccc(NS(=O)(=O)c2cc(Cl)ccc2Cl)cc1	EC50 [10]: > 195 µM (not active)
–	–	209 µM (active)	O=C(CCC1CCCC1)N1CCN(C2CCCC2)CC1	–
–	–	37.9 µM (active)	CC/N=C1\S/C(=C\c2ccc(O)c(OCC)c2)C(=O)N1CC	–
–	–	113 µM (active)	CN1CCCCC/C1=N\c1ccccc1C#N	–

Second part, the compound before the results:

SMILES	IC50 (Fatty acid synthase [3])	IC50 (Fatty acid synthase [4])	IC50 [5]	also measured
Cc1ccc(-n2c(=O)c(C#N)cc3c(=O)n4ccccc4nc32)cc1C	–	–	–	EC50 [1]: 55.8 µM (active); EC50 [2]: > 300 µM (not active)
COc1ccccc1C(=O)Nc1ccnn1C1CCN(C(C)CSC)CC1 (stereo not drawn)	–	–	–	EC50 [1]: > 300 µM (inconclusive); EC50 [2]: > 300 µM (not active)
C[C@@]12C(=O)Nc3ccccc3C(=O)N1[C@H]1c3cc(Br)ccc3OC[C@@H]1[C@@H]2c1ccccc1	11.8 µM (active)	16.2 µM (active)	–	–
O=C(c1ccccc1)c1coc2ccc(O)c(Cl)c12	–	–	75.4 µM (active)	–
COc1ccc(CNCc2cccc(OC)c2OC)cc1Br	–	–	149 µM (active)	–
CC1CCc2nn(CC(=O)NCCN3CCCCC3C)cc2C1 (stereo not drawn)	–	–	–	EC50 [1]: > 300 µM (not active); EC50 [2]: > 300 µM (not active)
O=C(NCCOc1ccccc1)c1cc(C(=O)NCCOc2ccccc2)cc([N+](=O)[O-])c1	2.75 µM (active)	5.6 µM (active)	–	EC50 [8]: 1.28 µM (active); EC50 [9]: > 60 µM (not active)
Cc1ccc(NC(=O)Cn2c(=O)c(C)nc3ccccc32)cc1	–	–	–	EC50 [1]: > 300 µM (not active); EC50 [2]: > 300 µM (not active)
CCN(C(=O)CSc1ncnc2c1cnn2-c1ccccc1)C1CCS(=O)(=O)C1 (stereo not drawn)	4.94 µM (active)	5.88 µM (active)	–	–
Cc1cccc(COC[C@H](CC(C)C)N2CCN(C(=O)c3ccc(C(C)(C)C)cc3)CCC2=O)c1	7.54 µM (active)	7.65 µM (active)	–	–
C[C@@](O)(/C=C/[C@H]1CC=CC(=O)O1)[C@@H](C[C@@H](O)\C=C/C=C\C=C\CO)OP(=O)(O)O [FOSTRIECIN SODIUM]	–	–	–	GI50 (SN12K1): 3.72 µM (inactive)
